Laboratory results: ChEMBL document CHEMBL1201862, “PubChem BioAssay data set” (2004)
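Values below derive from 48-hour exposures of cells grown in 96-well plates, with endpoints linearly interpolated between the two concentrations bracketing the appropriate inhibition level. GI50 marks 50% less growth.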 The source made the active and inactive calls. Cut-off read from the data, not from the text of the source: active = GI50 up to about 1.1 µM and inactive = higher.

Legend:
Assay in all cases: NCI anticancer screen, dose series, 48 h
HCT-116 = tested on: HCT-116
SF-539 = tested on: SF-539
UACC-257 = tested on: UACC-257
U-251 = tested on: U-251
PC-3 = tested on: PC-3
NCI-H522 = tested on: NCI-H522
RXF 393 = tested on: RXF 393
MDA-MB-231 = tested on: MDA-MB-231
HCT-15 = tested on: HCT-15
UO-31 = tested on: UO-31
SNB-19 = tested on: SNB-19
NCI-H23 = tested on: NCI-H23
SN12C = tested on: SN12C
SF-295 = tested on: SF-295
T47D = tested on: T47D
HCC 2998 = tested on: HCC 2998
SW-620 = tested on: SW-620
NCI-H460 = tested on: NCI-H460
OVCAR-8 = tested on: OVCAR-8
CCRF-CEM = tested on: CCRF-CEM
MOLT-4 = tested on: MOLT-4
HT-29 = tested on: HT-29
A498 = tested on: A498
LOX IMVI = tested on: LOX IMVI
MDA-N = tested on: MDA-N
MDA-MB-435 = tested on: MDA-MB-435
SK-MEL-5 = tested on: SK-MEL-5
ACHN = tested on: ACHN
SK-MEL-2 = tested on: SK-MEL-2
BT-549 = tested on: BT-549
M14 = tested on: M14
OVCAR-5 = tested on: OVCAR-5
COLO 205 = tested on: COLO 205
K562 = tested on: K562
HOP-92 = tested on: HOP-92
SNB-75 = tested on: SNB-75
HOP-62 = tested on: HOP-62
TK-10 = tested on: TK-10
OVCAR-3 = tested on: OVCAR-3
CAKI-1 = tested on: CAKI-1
RPMI-8226 = tested on: RPMI-8226
UACC-62 = tested on: UACC-62
NCI/ADR-RES = tested on: NCI/ADR-RES
IGROV-1 = tested on: IGROV-1
MCF7 = tested on: MCF7
SK-OV-3 = tested on: SK-OV-3
DU-145 = tested on: DU-145
OVCAR-4 = tested on: OVCAR-4
786-0 = tested on: 786-0
KM12 = tested on: KM12
EKVX = tested on: EKVX
NCI-H226 = tested on: NCI-H226
Hs-578T = tested on: Hs-578T
Malme-3M = tested on: Malme-3M
SK-MEL-28 = tested on: SK-MEL-28
SF-268 = tested on: SF-268
A549 = tested on: A549
HL-60 = tested on: HL-60
SR = tested on: SR

Question: Which results are given for `N#Cc1cnn2c1n[n+]([O-])c1ccc(Cl)cc12`?
Answer: GI50 (HCT-116): 8.75 µM (inactive); GI50 (SF-539): 18.2 µM (inactive); GI50 (UACC-257): 9.35 µM (inactive); GI50 (U-251): 17 µM (inactive); GI50 (PC-3): 14.7 µM (inactive); GI50 (NCI-H522): 1.75 µM (inactive); GI50 (RXF 393): 15 µM (inactive); GI50 (MDA-MB-231): 15.1 µM (inactive); GI50 (HCT-15): 1.97 µM; GI50 (UO-31): 13.5 µM (inactive); GI50 (SNB-19): 3.11 µM (inactive); GI50 (NCI-H23): 5.7 µM (inactive); GI50 (SN12C): 7.91 µM (inactive); GI50 (SF-295): 14.7 µM (inactive); GI50 (T47D): 17.3 µM (inactive); GI50 (HCC 2998): 1.92 µM (inactive); GI50 (SW-620): 9.14 µM (inactive); GI50 (NCI-H460): 11.4 µM (inactive); GI50 (OVCAR-8): 11.5 µM (inactive); GI50 (CCRF-CEM): 1.75 µM (inactive); GI50 (MOLT-4): 7.31 µM (inactive); GI50 (HT-29): 7.98 µM (inactive); GI50 (A498): 19.3 µM (inactive); GI50 (LOX IMVI): 3.98 µM (inactive); GI50 (MDA-N): 8.65 µM (inactive); GI50 (MDA-MB-435): 11.9 µM (inactive); GI50 (SK-MEL-5): 12.4 µM (inactive); GI50 (ACHN): 5.79 µM (inactive); GI50 (SK-MEL-2): 7.31 µM (inactive); GI50 (BT-549): 12.8 µM (inactive); GI50 (M14): 8.13 µM (inactive); GI50 (OVCAR-5): > 45.1 µM (inactive); GI50 (COLO 205): 16.6 µM (inactive); GI50 (K562): 1.71 µM (inactive); GI50 (HOP-92): 2.19 µM (inactive); GI50 (SNB-75): 6.9 µM (inactive); GI50 (HOP-62): 15.2 µM (inactive); GI50 (TK-10): 57.8 µM (inactive); GI50 (OVCAR-3): 2.96 µM (inactive); GI50 (CAKI-1): 1.26 µM (inactive); GI50 (RPMI-8226): 23.8 µM (inactive); GI50 (UACC-62): 4.49 µM (inactive); GI50 (NCI/ADR-RES): 9.68 µM (inactive); GI50 (IGROV-1): 4.14 µM (inactive); GI50 (MCF7): 28.7 µM (inactive); GI50 (SK-OV-3): 8.61 µM (inactive); GI50 (DU-145): 14.9 µM (inactive); GI50 (OVCAR-4): 2.23 µM (inactive); GI50 (786-0): 27.4 µM (inactive); GI50 (KM12): 25.6 µM (inactive); GI50 (EKVX): 2.9 µM (inactive); GI50 (NCI-H226): 18.6 µM (inactive); GI50 (Hs-578T): 5.3 µM (inactive); GI50 (Malme-3M): 7.69 µM (inactive); GI50 (SK-MEL-28): 13.2 µM (inactive); GI50 (SF-268): 9.73 µM (inactive); GI50 (A549): 14.1 µM (inactive); GI50 (HL-60): 2.86 µM (inactive)

Question: What does the source list for `COc1ccc(/C=C/C(=O)C(C)(C)Br)cc1`?
Answer: GI50 (HCT-116): 2.19 µM (inactive); GI50 (SF-539): 17.1 µM (inactive); GI50 (UACC-257): 15.5 µM (inactive); GI50 (U-251): 13.7 µM (inactive); GI50 (PC-3): 11.7 µM (inactive); GI50 (NCI-H522): 1.22 µM (inactive); GI50 (RXF 393): 1.4 µM (inactive); GI50 (MDA-MB-231): 20 µM (inactive); GI50 (HCT-15): 2.62 µM; GI50 (UO-31): 4.27 µM (inactive); GI50 (SNB-19): 25.8 µM (inactive); GI50 (NCI-H23): 2.25 µM (inactive); GI50 (SN12C): 4.95 µM (inactive); GI50 (SF-295): 17.9 µM (inactive); GI50 (T47D): 20.8 µM (inactive); GI50 (SW-620): 2.43 µM (inactive); GI50 (NCI-H460): 18.9 µM (inactive); GI50 (OVCAR-8): 3.04 µM (inactive); GI50 (CCRF-CEM): 1.59 µM (inactive); GI50 (MOLT-4): 3.86 µM (inactive); GI50 (A498): 20 µM (inactive); GI50 (LOX IMVI): 7.33 µM (inactive); GI50 (MDA-N): 7.57 µM (inactive); GI50 (MDA-MB-435): 11.5 µM (inactive); GI50 (SR): 3.3 µM (inactive); GI50 (SK-MEL-5): 14.7 µM (inactive); GI50 (ACHN): 8.55 µM (inactive); GI50 (SK-MEL-2): 12.2 µM (inactive); GI50 (BT-549): 1.92 µM (inactive); GI50 (M14): 1.56 µM (inactive); GI50 (OVCAR-5): 12 µM (inactive); GI50 (COLO 205): 15 µM (inactive); GI50 (K562): 4.61 µM (inactive); GI50 (HOP-92): 11.8 µM (inactive); GI50 (HOP-62): 6.3 µM (inactive); GI50 (TK-10): 14.6 µM (inactive); GI50 (OVCAR-3): 17.5 µM (inactive); GI50 (CAKI-1): 17.4 µM (inactive); GI50 (RPMI-8226): 3.42 µM (inactive); GI50 (UACC-62): 12.7 µM (inactive); GI50 (NCI/ADR-RES): 24 µM (inactive); GI50 (IGROV-1): 1.71 µM (inactive); GI50 (MCF7): 5.11 µM (inactive); GI50 (SK-OV-3): 22.2 µM (inactive); GI50 (DU-145): 14.3 µM (inactive); GI50 (786-0): 3.48 µM (inactive); GI50 (KM12): 16.1 µM (inactive); GI50 (EKVX): 15.1 µM (inactive); GI50 (Hs-578T): 16.3 µM (inactive); GI50 (Malme-3M): 13.5 µM (inactive); GI50 (SF-268): 15.2 µM (inactive); GI50 (A549): 20.3 µM (inactive); GI50 (HL-60): 19.5 µM (inactive)
